“Also recorded” adds a separate entry of the source.
Assays:
[1] = Color change / browning / yellowing of foods (keeping produce green longer); conditions: for Change in color and softness: after 70 days
[2] = Color loss of meat and fish; conditions: meat and fish
Source text: (§1) Most of the foods changed color or texture.
(§2) These bags were sealed with a heat sealer.

yeast = experiment: Rising of dough; conditions: Example 74; Freshly prepared dough for bread; 1% in 100 g flour
Source text: On a control sample of freshly prepared dough, rising could continuously be observed throughout the day.

[3] = Odor and softening/mushiness of pre-soaked grains; conditions: Odor, White rice, control 5 days
Source text: as §1, §2

avocado = experiment: Softening / rotten inside (spoiled flesh) of avocado; conditions: for Spoilage Time - Sample: Softening, Avocado, control 2 days
Source text: as §1
(§3) The assembly was shaken periodically.

[4] = Gas formation (gassed dome) of fresh juice; conditions: Example 65, Orange juice, 0.02 g, control 4 days
Source text: as §1

fungus = experiment: Fungus growth on treated foods stored in closed containers at room temperature; conditions: for Spoilage Time - Sample: Fungus;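 as to Effectiveness on ginger: compared with untreated control ginger in closed containers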
Source text: as §1
Glass jars and bottles were also used. The containers were snap-closed or with a lid.
as §2, §3

[5] = General shelf-life extension of foods (spoilage criteria of Example 9)
[6] = system: parval, methi, coriander, radish, guar; experiment: Shriveling / wilting / dehydration / becoming wet of produce
Source text: as §1, §3

## C=CCN=C=S [AI, allyl isothiocyanate]
[1]; Example 11, Browning, Coriander, 0.25 hr P-E, control 11 days
  Spoilage Time - Sample: significantly delayed
[1]; Example 12, Color change, Paneer (Indian cottage cheese), Sachet, control 9 days
  Spoilage Time - Sample: 10+ days
[1]; Example 13, Color change, Red cabbage juice, 0.02 g, control 12 days
  Spoilage Time - Sample: 13 days
[1]; Example 14, Color change, Blackberry juice, 0.02 g, control 5 days
  Spoilage Time - Sample: 12 days
[1]; Example 15, Color change, Tindora, 2 hrs P-E, control 6 days
  Spoilage Time - Sample: 17 days
[1]; Example 15, Color change, Tindora, 2 hrs P-E, control 6 days, listed as allyl isothiocyanate
  Spoilage Time - Sample: delay of ripening and turning red from green was achieved
[1]; Example 30, fresh green chickpeas, sachet, control 7 days
  Green-to-yellow color change: > 9 days
[1]; Example 48, puri
  Change in color and softness: There was very little change in color and softness of puri even after 70 days. Other
[1]; Example 53, millet bread
  Change in color and softness: There was very little change in color and softness of millet bread even after 70 days.
[1]; Examples 25 & 27, broccoli, vapors, control 5 days
  Color change from green-to-yellow: > 16 days
[2]
  Improvements with meat and fish: demonstrated improvements
yeast
  Rise of dough: did not rise; also recorded: allyl isothiocyanate is capable of killing yeast
[3]; Example 72, 5 ml of 10% allyl isothiocyanate solution in water
  Spoilage Time - Sample: 21 days
[3]; Example 72, 5 ml of 10% allyl isothiocyanate solution in water, listed as allyl isothiocyanate
  Spoilage Time - Sample: > 21 days
[3]; Example 73, Sachet
  Spoilage Time - Sample: 21 days
avocado; Example 77, 0.25 hr P-E
  Spoilage Time - Sample: 2 days
avocado; Example 78, 2 hrs P-E
  Spoilage Time - Sample: 2 days
avocado; avocados, Examples 77, 78, 107, 108, 113 & 171
  Spoiling of the flesh with development of fungus: significantly delayed
[4]
  Spoilage Time - Sample: 12 days
fungus; Example 12, Paneer (Indian cottage cheese), sachet
  Fungus growth: > 10 days
fungus; Example 20, Apple juice, 0.02 g, control 7 days
  Spoilage Time - Sample: 13 days
fungus; Example 21, Beet juice, 0.02 g, control 7 days
  Spoilage Time - Sample: 13 days
fungus; Example 22, Blueberries, 16 hrs P-E, control 3 days
  Spoilage Time - Sample: 24 days
fungus; Example 25, Broccoli, 0.25 hr P-E, control 6 days
  Spoilage Time - Sample: 9 days
fungus; Example 26, Broccoli, Sachet, control 6 days
  Spoilage Time - Sample: 9 days
fungus; Example 27, Broccoli, 2 hrs P-E, control 5 days
  Spoilage Time - Sample: 16 days
fungus; Example 28, Carrot juice, 0.02 g, control 12 days
  Spoilage Time - Sample: 13 days
fungus; Example 30, Chickpeas, Sachet, control 7 days
  Spoilage Time - Sample: 9+ days
fungus; Example 33, Fresh, raw, shelled undried peanuts, Sachet, control 18 days
  Spoilage Time - Sample: 46 days
fungus; Example 33, Fresh, raw, shelled undried peanuts, Sachet, control 18 days, listed as allyl isothiocyanate
  Spoilage Time - Sample: significantly delayed or prevented
fungus; Example 35, 5.3% Gelatin, 175 bloom in water, Sachet, control 9 days
  Spoilage Time - Sample: 47 days
fungus; Example 37, 4% Guar Gum in water, Sachet, control 5 days
  Spoilage Time - Sample: 47 days
fungus; Example 39, Guar beans, 2 hrs P-E, control 6 days
  Spoilage Time - Sample: 17 days
fungus; Example 40, Honeydew juice, 0.02 g, control 12 days
  Spoilage Time - Sample: 30 days
fungus; Example 42, Lychee, 0.5 hr P-E, control 7 days
  Spoilage Time - Sample: 11 days
fungus; Example 44, Mixed Legumes, 64 hrs P-E, 6 hrs soaking, control 11 days
  Spoilage Time - Sample: 17 days
fungus; Example 45, Monterey cheese, Sachet, control 7 days
  Spoilage Time - Sample: 10+ days
fungus; Example 45, Monterey cheese, Sachet, control 7 days, listed as allyl isothiocyanate
  Spoilage Time - Sample: > 10 days
fungus; Example 47, Pomegranate juice, 0.02 g, control 7 days
  Spoilage Time - Sample: 13 days
fungus; Example 48, Puri (Indian fried bread), 16 hrs P-E, control 5 days
  Spoilage Time - Sample: 70+ days
fungus; Example 49, Raspberry, 1 hr P-E, control 5 days
  Spoilage Time - Sample: 9 days
fungus; Example 50, Raspberry, 0.33 hr P-E, control 5 days
  Spoilage Time - Sample: 31 days
fungus; Example 51, Raw milk cheddar cheese, 1 hr P-E & Sachet, control 6 days
  Spoilage Time - Sample: 35 days
fungus; Example 53, Rotala (Indian millet bread), 16 hrs P-E, control 5 days
  Spoilage Time - Sample: 70+ days
fungus; Example 56, 26.7% Starch solution in water, 0.25 ml of 0.42% solution, control 5 days
  Spoilage Time - Sample: 47 days
fungus; Example 57, 26.7% Starch solution in water, Sachet, control 5 days
  Spoilage Time - Sample: 47 days
fungus; Example 58, Strawberries, 5 hrs P-E, control 2 days
  Spoilage Time - Sample: 15 days
fungus; Example 59, Tindora, 2 hrs P-E, control 6 days
  Spoilage Time - Sample: 40 days
fungus; Example 60, Tofu, Sachet, control 6 days
  Spoilage Time - Sample: 9+ days
fungus; Example 60, Tofu, Sachet, control 6 days, listed as allyl isothiocyanate
  Spoilage Time - Sample: > 9 days
fungus; Example 62, Unshelled peanuts, 5 ml of 0.42% solution, control 5 days
  Spoilage Time - Sample: 8 days
fungus; Example 62, Unshelled peanuts, 5 ml of 0.42% solution, control 5 days, listed as allyl isothiocyanate
  Spoilage Time - Sample: either prevented or significantly delayed
fungus; Example 63, Wild Rice, 5 ml of 10% allyl isothiocyanate solution in water, control 11 days
  Spoilage Time - Sample: 21 days
fungus; Example 64, Wild Rice, Sachet, control 11 days
  Spoilage Time - Sample: 21 days
fungus; Example 89, Mixed Legumes, AI & Humidity, 64 hrs P-E AI, 6 hrs soaking in water, control 11 days
  Spoilage Time - Sample: 17 days
fungus; Indian millet bread, Indian wheat bread (roti), cheesecake, sachet or pre-exposure to vapors
  Fungus growth: either prevented or significantly delayed
fungus; compared with ethyl isothiocyanate
  Effectiveness in preventing fungus: more effective
fungus; fresh cold pressed carrot, red cabbage and beet juice, Examples 28, 21, 13
  Fungus growth: either prevented or significantly delayed
fungus; fresh cold pressed pomegranate, blackberry, orange, red grape, apple, blueberry and honeydew juice
  Fungus growth: either prevented or significantly delayed
fungus; fresh, cold pressed tomatillo, lime and green cabbage juices
  Shelf-life of vegetable juices: improved shelf-life
fungus; ginger, pre-exposure and sachet method
  Effectiveness on ginger: found effective
fungus; guar gum and starch, Examples 37, 56 & 57
  Fungus growth: either prevented or significantly delayed
fungus; raw milk yogurt
  Shelf-life of raw milk yogurt: extended shelf-life
fungus; strawberries, raspberries, blackberries and lychee
  Fungus growth: either prevented or significantly delayed
[5]; flowery vegetables
  Shelf-life of flowery vegetables: extended shelf-life
[5]; tindora dipped in solution
  Shelf-life extension: demonstrated shelf-life extension
[5]; tofu
  Effectiveness as shelf-life extender: effective
[5]; variety of foods
  Effectiveness for controlling one or more spoilage criteria: effective to a greater or lesser extent
[6]; Example 75, Shriveling, Parval, 0.5 hr P-E, control 4 days
  Spoilage Time - Sample: 4+ days
[6]; Example 76, Shriveling, Parval, 1 hr P-E, control 4 days
  Spoilage Time - Sample: 4+ days
[6]; Example 83, Wet, Methi (Indian fenugreek), 1 hr P-E, control 9 days
  Spoilage Time - Sample: 30 days
[6]; Example 83, Wet, Methi (Indian fenugreek), 1 hr P-E, control 9 days, listed as allyl isothiocyanate
  Spoilage Time - Sample: remained fresh and green
[6]; guar exposed to vapor, lost green color slightly
  Crispness of treated guar: remained crisp

Source: patent publication US12193465B2, “Materials and methods for extending shelf-life of foods” (JP Laboratories, Inc., priority 2021, dated 2025)
